Earlier results in patent US8575155B2, “Composition and method to modify sperm function and increase male gender ratio in mammals” (priority 2008, dated 2013).

Experiments:
[1] = test system: early-staged mouse embryos

## CCN(CC)c1cc2c(cc1C)Nc1ccc(N)cc1O2 [BCB, 2-methyl-3-diethylamino-7-amino phenoxazine]
[1]
  toxicity of BCB and its metabolites: relatively non-toxic
Bovine oocytes
  increase in oxidation of glucose through the HMS: 15 fold
Bovine oocytes; compared with the increase through the HMS
  increase in glucose oxidation through glycolysis: somewhat less increase
